Assay results taken from ChEMBL document CHEMBL1125095, “Conformational analysis and structure-activity relationships of selective dopamine D-1 receptor agonists and antagonists of the benzazepine series” (J Med Chem, 1990).

Columns and labels:
[1] = target: T1, Adenylate cyclase type 5 (Homo sapiens, UniProt O95622); experiment: Effective dose required to stimulate Adenylate cyclase
Target sequence in this assay (O95622 whole entry, looked up): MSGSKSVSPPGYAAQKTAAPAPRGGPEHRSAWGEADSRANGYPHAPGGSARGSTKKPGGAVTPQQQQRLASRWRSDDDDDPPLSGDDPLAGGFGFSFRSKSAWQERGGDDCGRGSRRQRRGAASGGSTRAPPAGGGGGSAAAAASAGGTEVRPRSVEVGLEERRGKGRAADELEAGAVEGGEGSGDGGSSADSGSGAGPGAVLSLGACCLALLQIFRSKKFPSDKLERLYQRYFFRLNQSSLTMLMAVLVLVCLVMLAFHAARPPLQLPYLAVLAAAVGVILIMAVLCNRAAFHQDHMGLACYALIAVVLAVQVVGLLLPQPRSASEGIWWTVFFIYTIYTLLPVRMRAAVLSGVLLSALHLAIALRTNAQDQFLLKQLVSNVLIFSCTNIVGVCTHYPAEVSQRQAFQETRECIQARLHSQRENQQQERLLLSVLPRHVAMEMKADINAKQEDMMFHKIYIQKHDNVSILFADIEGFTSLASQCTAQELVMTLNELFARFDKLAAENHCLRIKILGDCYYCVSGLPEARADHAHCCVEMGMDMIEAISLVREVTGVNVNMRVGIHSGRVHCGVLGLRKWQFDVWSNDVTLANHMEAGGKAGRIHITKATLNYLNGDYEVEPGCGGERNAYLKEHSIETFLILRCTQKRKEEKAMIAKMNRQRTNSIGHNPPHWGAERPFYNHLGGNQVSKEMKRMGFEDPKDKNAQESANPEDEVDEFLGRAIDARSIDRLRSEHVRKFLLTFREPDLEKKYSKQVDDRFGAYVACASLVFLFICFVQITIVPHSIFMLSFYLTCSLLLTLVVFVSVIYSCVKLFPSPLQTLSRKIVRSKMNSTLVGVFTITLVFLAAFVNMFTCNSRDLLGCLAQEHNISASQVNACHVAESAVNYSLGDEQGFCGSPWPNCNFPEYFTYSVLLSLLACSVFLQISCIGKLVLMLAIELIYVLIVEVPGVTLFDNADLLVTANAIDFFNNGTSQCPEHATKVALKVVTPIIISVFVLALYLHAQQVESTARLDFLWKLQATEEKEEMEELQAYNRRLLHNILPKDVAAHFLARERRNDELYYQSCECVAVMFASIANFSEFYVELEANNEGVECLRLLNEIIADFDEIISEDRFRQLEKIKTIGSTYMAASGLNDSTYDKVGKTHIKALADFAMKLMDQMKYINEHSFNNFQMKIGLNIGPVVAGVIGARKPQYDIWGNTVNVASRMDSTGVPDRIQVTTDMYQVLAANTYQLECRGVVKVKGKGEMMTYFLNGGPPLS

[2] = target: D(1A) dopamine receptor (Rattus norvegicus, UniProt P18901); experiment: Binding affinity against Dopamine receptor D1 in rat radioligand
D(1A) dopamine receptor (Rattus norvegicus, UniProt P18901), sequence (P18901 whole entry): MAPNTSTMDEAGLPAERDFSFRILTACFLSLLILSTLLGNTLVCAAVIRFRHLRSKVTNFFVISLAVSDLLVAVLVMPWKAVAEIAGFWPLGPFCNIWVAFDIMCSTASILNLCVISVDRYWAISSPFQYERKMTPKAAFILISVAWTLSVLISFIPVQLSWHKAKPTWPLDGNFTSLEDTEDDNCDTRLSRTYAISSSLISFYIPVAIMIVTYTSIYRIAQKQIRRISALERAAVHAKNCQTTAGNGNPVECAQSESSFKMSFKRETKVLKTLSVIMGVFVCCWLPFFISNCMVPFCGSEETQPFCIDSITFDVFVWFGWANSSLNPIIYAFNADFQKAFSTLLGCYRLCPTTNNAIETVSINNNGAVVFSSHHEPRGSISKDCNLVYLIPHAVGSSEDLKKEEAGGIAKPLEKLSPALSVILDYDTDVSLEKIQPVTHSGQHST

[3] = target: T1, Adenylate cyclase type 5; experiment: Effective concentration required to stimulate Adenylate cyclase; Inactive
Target sequence in this assay (O95622 whole entry): as the sequence (O95622 whole entry, looked up) above

[4] = target: T1, Adenylate cyclase type 5; experiment: Effective concentration required to stimulate Adenylate cyclase
Target sequence in this assay (O95622 whole entry, looked up): as above

[5] = target: T2, D(1A) dopamine receptor (Homo sapiens, UniProt P21728); experiment: Binding affinity to displace [3H]- SCH 23390 against Dopamine receptor D1
T2 sequence (P21728 whole entry): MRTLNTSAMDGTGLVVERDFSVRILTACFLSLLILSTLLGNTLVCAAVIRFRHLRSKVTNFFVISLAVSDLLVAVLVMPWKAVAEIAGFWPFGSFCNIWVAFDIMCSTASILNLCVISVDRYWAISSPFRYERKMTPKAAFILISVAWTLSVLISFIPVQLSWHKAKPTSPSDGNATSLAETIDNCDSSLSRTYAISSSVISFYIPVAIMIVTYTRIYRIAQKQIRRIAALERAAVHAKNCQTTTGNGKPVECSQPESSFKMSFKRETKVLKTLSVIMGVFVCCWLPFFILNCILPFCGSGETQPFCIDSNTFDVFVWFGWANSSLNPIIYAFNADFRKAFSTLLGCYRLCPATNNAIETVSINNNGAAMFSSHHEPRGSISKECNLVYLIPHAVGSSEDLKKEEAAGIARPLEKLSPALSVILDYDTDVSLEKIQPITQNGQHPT

[6] = target: T2, D(1A) dopamine receptor; experiment: Binding affinity to displace [3H]-SCH- 23390 against Dopamine receptor D1

Question: Which ED50 [1] does the source give for `Oc1cc2c3c(c1O)CC[C@@H]3CNC[C@@H]2c1ccccc1` here?
Answer: Its ED50 is 430 nM.

Question: And the Ki [2]?
Answer: Its Ki is 24 nM.

Question: For `Cc1ccccc1[C@H]1CNCCc2cc(O)c(O)cc21`, which EC50 [3] is on record?
Answer: Its EC50 is “Not Active”.

Question: `Cc1cccc([C@H]2CNCCc3cc(O)c(O)cc32)c1` was tested. Which Response [4] did it give?
Answer: Its Response is 71%.

Question: `Cc1cccc([C@H]2CN(C)CCc3cc(Cl)c(O)cc32)c1` was tested. Which Ki [5] did it give?
Answer: The Ki was 0.4 nM.

Question: What does the source list for `Oc1cc2c3c(c1O)CC[C@H]3CNC[C@@H]2c1ccccc1`?
Answer: Control [1]: 20%; Ki [2]: 1220 nM

Question: Which Ki [5] does the source give for `CN1CCc2cc(Cl)c(O)cc2[C@H]2c3ccccc3C[C@@H]21` here?
Answer: The Ki was 7 nM.

Question: With `Cc1c(O)c(O)cc2c1[C@@H](c1ccccc1)CNCC2` as the compound, how does the EC50 [3] read?
Answer: Its EC50 is “Not Active”.

Question: Which Ki [5] does the source give for `Cc1ccc([C@H]2CN(C)CCc3cc(Cl)c(O)cc32)cc1` here?
Answer: Its Ki is 1.6 nM.

Question: `Cc1ccccc1[C@H]1CN(C)CCc2cc(Cl)c(O)cc21` was tested. Which Ki [5] did it give?
Answer: Its Ki is 0.8 nM.

Question: `CN1CCc2cc(Cl)c(O)cc2[C@@H](c2cccc3ccoc23)C1` was tested. Which Ki [6] did it give?
Answer: The Ki was 6 nM.

Question: How did the ED50 [1] turn out when `Oc1cc2c(cc1O)[C@@H](c1ccccc1)CNCC2` was run?
Answer: The ED50 was 63 nM.
